# Reference: article PMC9061180 (RSC Advances, 2019)
# Where two headings read alike, the source gives them in different places.
# Assays:
# Format in all cases: cell-based
# SJ-G2 (glioblastoma) = test: cells; details: read-out: GI50 SJ-G2
# [1] = system: panel of eleven cancer cell lines and one normal cell line; test: MTT cytotoxicity, panel of eleven cancer cell lines and one normal cell line; details: for activity in initial screen: 25 μM drug concentration; for levels of toxicity: against HT29, U87, A2780, MIA and SMA cell lines; for GI50: read-out: average GI50
# HT29 (colon carcinoma) = test: cells; details: read-out: GI50 HT29
# MCF-7 (breast carcinoma) = test: cells; details: read-out: GI50 MCF-7
# MCF10A (normal breast) = test: cells; details: read-out: GI50 MCF10A
# U87 (glioblastoma) = test: cells; details: read-out: GI50 U87
# A431 (skin carcinoma) = test: cells; details: read-out: GI50 A431
# [2] = system: A2780 (ovarian carcinoma); test: cells; details: read-out: GI50 A2780
# [3] = system: MIA (pancreatic carcinoma); test: cells; details: read-out: GI50 MIA
# BE2-C (neuroblastoma) = test: cells; details: read-out: GI50 BE2-C
# [4] = system: SMA (spontaneous murine astrocytoma); test: cells; details: read-out: GI50 SMA
# [5] = system: Du145 (prostate carcinoma); test: cells; details: read-out: GI50 Du145
# H460 (lung carcinoma) = test: cells; details: read-out: GI50 H460
# [6] = Table 5, normal breast cell line, 72 h exposure, MTT
Compound,"GI50 (SJ-G2 (glioblastoma); SJ-G2, 72 h)",activity in initial screen [1],levels of toxicity [1],GI50 [1],"GI50 (HT29 (colon carcinoma); Homo sapiens, HT-29, 72 h)","GI50 (MCF-7 (breast carcinoma); Homo sapiens, MCF7, 72 h)","GI50 (MCF10A (normal breast); Homo sapiens, MCF-10A, 72 h)",GI50 (U87 (glioblastoma); 72 h),"GI50 (A431 (skin carcinoma); Homo sapiens, A-431, 72 h)","GI50 ([2]; Homo sapiens, A2780, 72 h)",GI50 ([3]; 72 h),"GI50 (BE2-C (neuroblastoma); Homo sapiens, BE(2)-C, 72 h)","GI50 ([4]; Mus musculus, 72 h)","GI50 ([5]; Homo sapiens, DU-145, 72 h)","GI50 (H460 (lung carcinoma); Homo sapiens, NCI-H460, 72 h)",also measured
"C#CC(=O)N(c1ccccc1)C(C(=O)NC1CCCCC1)c1ccccc1 (racemic) [Compound 12, (RS)-N-(2-(Cyclohexylamino)-2-oxo-1-phenylethyl)-N-phenylpropiolamide]",3000 ± 100 nM,sufficiently promising activity,sub-micro molar,1160 nM,270 ± 10 nM,1600 ± 290 nM,2900 ± 100 nM,190 ± 10 nM,1000 ± 200 nM,230 ± 20 nM,250 ± 20 nM,500 ± 200 nM,250 nM,180 ± 10 nM,3600 ± 600 nM,–
"O=C(NC1CCCCC1)C(c1ccccc1)N(C(=O)CC(F)(F)F)c1ccccc1 (racemic) [Compound 16g, (RS)-N-(2-(Cyclohexylamino)-2-oxo-1-phenylethyl)-3,3,3-trifluoro-N-phenylpropanamide]",11000 ± 1000 nM,sufficiently promising activity,–,7200 nM,5900 ± 200 nM,8000 ± 2000 nM,5100 ± 500 nM,12000 ± 1000 nM,4300 ± 300 nM,6500 ± 200 nM,5900 ± 100 nM,6900 ± 600 nM,10000 ± 300 nM,4800 ± 400 nM,6000 ± 500 nM,–
"C#CC(=O)N(c1ccccc1)C(C(=O)NCc1ccccc1)c1ccccc1 (racemic) [Compound 17a, (RS)-N-(2-(Benzylamino)-2-oxo-1-phenylethyl)-N-phenylpropiolamide]",2500 ± 100 nM,sufficiently promising activity,sub-micro molar,970 nM,170 ± 3 nM,1700 ± 200 nM,1400 ± 400 nM,130 ± 17 nM,970 ± 200 nM,100 ± 34 nM,150 ± 9 nM,1400 ± 300 nM,160 nM,1000 ± 10 nM,2000 ± 500 nM,–
"CC(=O)N(c1ccccc1)C(C(=O)NCc1ccccc1)c1ccccc1 (racemic) [Compound 17e, (RS)-N-Benzyl-2-phenyl-2-(N-phenylacetamido)acetamide]",15000 ± 4000 nM,sufficiently promising activity,–,–,> 50000 nM,> 50000 nM,15000 ± 1000 nM,> 50000 nM,13000 ± 1000 nM,16000 nM,8500 ± 900 nM,25000 ± 9000 nM,> 50000 nM,> 50000 nM,21000 nM,–
"C#CC(=O)N(c1ccccc1)C(C(=O)NCC(=O)OCC)c1ccccc1 (racemic) [Compound 18a, (RS)-Ethyl (2-phenyl-2-(N-phenylpropiolamido)acetyl)glycinate]",3000 ± 200 nM,sufficiently promising activity,sub-micro molar,1800 nM,470 ± 90 nM,2700 ± 130 nM,6600 ± 1000 nM,270 ± 30 nM,2100 ± 300 nM,330 ± 110 nM,500 ± 100 nM,1800 ± 400 nM,480 ± 60 nM,320 ± 40 nM,3000 ± 400 nM,–
"C#CC(=O)N(c1ccc(OC)cc1)C(C(=O)NC1CCCCC1)c1ccccc1 (racemic) [Compound 19, (RS)-N-(2-(Cyclohexylamino)-2-oxo-1-phenylethyl)-N-(4-methoxyphenyl)propiolamide]",760 ± 570 nM,–,–,–,200 ± 20 nM,1200 ± 33 nM,3300 ± 520 nM,220 nM,590 ± 260 nM,220 ± 17 nM,200 ± 20 nM,200 ± 6.7 nM,–,200 ± 69 nM,2200 ± 200 nM,–
"C#CC(=O)N(c1ccccc1)C(C(=O)NC1CCCCC1)c1cccc(OC)c1OC (racemic) [Compound 20, (RS)-N-(2-(Cyclohexylamino)-1-(2,3-dimethoxyphenyl)-2-oxoethyl)-N-phenylpropiolamide]",1800 ± 88 nM,–,–,–,470 ± 120 nM,1800 ± 67 nM,7600 ± 1800 nM,710 ± 64 nM,1200 ± 410 nM,490 ± 95 nM,460 ± 100 nM,460 ± 38 nM,–,660 ± 240 nM,2300 ± 300 nM,–
"C#CC(=O)N(c1ccccc1)C(C(=O)NC1CCCCC1)c1ccc(OC)c(OC)c1 (racemic) [Compound 21, (RS)-N-(2-(Cyclohexylamino)-1-(3,4-dimethoxyphenyl)-2-oxoethyl)-N-phenylpropiolamide]",1600 ± 180 nM,–,–,–,530 ± 41 nM,1500 ± 120 nM,5100 ± 400 nM,730 ± 130 nM,1000 ± 290 nM,540 ± 120 nM,440 ± 140 nM,270 ± 29 nM,–,610 ± 250 nM,2800 ± 1100 nM,–
(RS)-N-(2-(Cyclohexylamino)-2-oxo-1-phenylethyl)-N-phenylbut-2-enamide [Compound 16d],–,sufficiently promising activity,–,–,–,–,–,–,–,–,–,–,–,–,–,"GI50 (SJ-G2 (glioblastoma); Table 5, 72 h exposure, MTT): 13000 ± 1000 nM; GI50 ([1]; average over the cell lines of Table 5): 9400 nM; GI50 (HT29 (colon carcinoma); Table 5, 72 h exposure, MTT): 15000 ± 1000 nM; GI50 (MCF-7 (breast carcinoma); Table 5, 72 h exposure, MTT): 4600 ± 1300 nM; GI50 (MCF10A (normal breast); [6]): 7500 ± 1800 nM; GI50 (U87 (glioblastoma); Table 5, 72 h exposure, MTT): 16000 nM; GI50 (A431 (skin carcinoma); Table 5, 72 h exposure, MTT): 2200 ± 100 nM; GI50 ([2]; Table 5, 72 h exposure, MTT): 12000 nM; GI50 ([3]; Table 5, 72 h exposure, MTT): 4500 ± 300 nM; GI50 (BE2-C (neuroblastoma); Table 5, 72 h exposure, MTT): 2600 ± 300 nM; GI50 ([4]; Table 5, 72 h exposure, MTT): 14000 ± 2000 nM; GI50 ([5]; Table 5, 72 h exposure, MTT): 8600 ± 2300 nM; GI50 (H460 (lung carcinoma); Table 5, 72 h exposure, MTT): 13000 ± 300 nM"
"N-(2-cyclohexylamino)-1-(4-methoxyphenyl)-2-oxoethyl-N-(3,5-dimethoxyphenyl)propiolamide [Compound 1, reference compound]",–,–,–,–,–,–,–,–,–,–,–,–,–,–,–,"GI50 (SJ-G2 (glioblastoma); Table 5, 72 h exposure, MTT): 1700 ± 260 nM; GI50 ([1]; across the cancer cell lines evaluated): ≤ 1000 nM; GI50 (HT29 (colon carcinoma); Table 5, 72 h exposure, MTT): 70 ± 10 nM; GI50 (MCF-7 (breast carcinoma); Table 5, 72 h exposure, MTT): 1700 ± 170 nM; GI50 (MCF10A (normal breast); [6]): 290 ± 30 nM; GI50 (U87 (glioblastoma); Table 5, 72 h exposure, MTT): 60 ± 20 nM; GI50 (A431 (skin carcinoma); Table 5, 72 h exposure, MTT): 460 ± 150 nM; GI50 ([2]; Table 5, 72 h exposure, MTT): 580 ± 510 nM; GI50 ([3]; Table 5, 72 h exposure, MTT): 60 ± 30 nM; GI50 (BE2-C (neuroblastoma); Table 5, 72 h exposure, MTT): 30 ± 10 nM; GI50 ([5]; Table 5, 72 h exposure, MTT): 110 ± 50 nM; GI50 (H460 (lung carcinoma); Table 5, 72 h exposure, MTT): 1400 ± 600 nM"
